Data from patent US7579373B2, “Targeted bisplatinum polyamines as pro-drugs: selective release of platinum” (Virginia Commonwealth University, priority 2002, dated 2009).

Columns and labels:
L1210/0 [1] = assay: Cellular accumulation in L1210/0 cells; type: cell-based, murine; conditions: 2 hours of exposure; (±SE), 3 experiments of 2 determinations
Method: (§1) Cellular accumulation. The cellular accumulation assays followed published procedures (7). Briefly, cells were resuspended at 10^7/mL in media supplemented with […]. Platinum complexes were added, and samples were incubated at 37° C. in 5% CO2. At 0 and 2 hours aliquots were removed for determination of cell concentrations and for measurement of platinum content. For the latter, aliquots were washed three times in cold phosphate buffered saline, resuspended in 1% Triton-X in water, and sonicated. Platinum content was measured by flameless atomic absorption spectroscopy.
(§2) The cellular accumulation of the blocked Pt compound 2 was also investigated. […] Based solely on charge considerations the BOC-spermidine with a charge of 2+ should have cellular uptake similar to 1,1/t,t (n=6). The enhanced uptake could be explained by some hydrolysis in media or plasma producing small amounts of the protonated 1,1/t,t-spermidine. Considering the potency of polynuclear-polyamine compounds, a small percentage of hydrolysis could have a significant impact on in vivo activity.

A2780 = assay: SRB growth inhibition assay, A2780; type: cell-based, human; conditions: 96 h exposure
Method: (§3) Cell culture. A2780, A2780/CDDP, CH1, CH1/CDDP, 41M and 41M/CDDP cell lines were used in this study and maintained according to published procedures. (8,9).
(§4) Growth inhibition assay. The Sulforhodamine B (SRB) assay was used to determine growth inhibition potency of platinum drugs (10). The cells were seeded in 96-well microtitre plates at 3-8×10^3 cells/well in 160 μL growth medium and allowed to attach overnight. Platinum agents were then added after serial dilution in quadruplicate wells and exposed to cells for 2 or 96 hours. After the 2 hours drug incubations were complete, plates were washed free of drug with phosphate-buffered saline (PBS) and then refed with normal growth medium for a further 94 hours. Quantitation of cell growth in treated and control wells was then assessed using 0.4% SRB dissolved in 1% acetic acid. IC50 values were determined graphically.
(§5) Of special interest is the remarkably low value for 4 (Fmoc) in A2780 cells.

L1210/0 [2] = assay: Growth inhibition in L1210/0 cells; type: cell-based, murine; conditions: 2 hours of exposure; mean (±SE), 3 experiments of 2 determinations
Excerpt: To examine the pro-drug potential in a biological setting, a comparison of the pharmacological properties of the blocked polyamine compounds in L1210 murine leukemia cells was undertaken.

L1210/DDP [3] = assay: Cellular accumulation in L1210/DDP cells; type: cell-based, murine; conditions: 2 hours of exposure; (±SE), 3 experiments of 2 determinations
Method: as §1, §2

A2780/CDDP = assay: SRB growth inhibition assay, A2780/CDDP; type: cell-based, human; conditions: 96 h exposure
Method: as §3
as §4, with “graphically. […]” for “graphically.”

L1210/DDP [4] = assay: Growth inhibition in L1210/DDP cells; type: cell-based, murine
[5] = pKa of the N4 site by pH titration monitored by 1H NMR; type: physicochemical
Method: pH measurements were taken on a Corning 340 pH meter with combined glass electrode. pD values in deuterated solutions were obtained by addition of 0.4 units to the meter reading. Extinction coefficients were determined with a Jasco V-550 UV/VIS spectrophotometer using 1 cm cuvettes.
In order to find the optimal conditions for the synthetic procedure, the pKa of the N4 site of the unprotected Pt spermidine complex 1 was determined prior to the protection reactions (6). A pH titration was carried out and monitored by ^1H NMR spectroscopy (11 and 12). […] The increased acidity is most likely a consequence of the electron withdrawing effect of the coordinated platinum centers.

CH1/CDDP = assay: SRB growth inhibition assay, CH1/CDDP; type: cell-based, human
Method: as §3
as §4, with “graphically. […]” for “graphically.”

CH1 = assay: SRB growth inhibition assay, CH1; type: cell-based, human; conditions: 96 h exposure
Method: as §3, §4, §5

41M = assay: SRB growth inhibition assay, 41M; type: cell-based, human; conditions: 96 h exposure
Method: as §3, §4, §5

**Q.** What does the source list for N.N.N.N.NCCCC[NH2+]CCCN.[Cl-].[Cl-].[Cl-].[Cl][Pt+].[Cl][Pt+] [Compound 1, [{trans-Pt(NH3)2Cl}2-μ-spermidine-N^1,N^8]Cl3]?
**A.** Accumulation L1210/0 (L1210/0 [1]): 17 (3.4) attamol Pt complex/cell; IC50 (A2780): < 250 nM; IC50 (L1210/0 [2]): 750 nM; Accumulation L1210/DDP (L1210/DDP [3]): 20 (2.1) attamol Pt complex/cell; IC50 (A2780/CDDP): < 250 nM; IC50 (L1210/DDP [4]; 2 hours of exposure, mean (±SE), 3 experiments of 2 determinations): 260 nM; RF, resistance factor (L1210/DDP [4]; IC50 L1210/DDP / IC50 L1210/0, 2 hours of exposure): 0.35; pKa of the N4 site [5]: 9.24±0.05; IC50 (CH1/CDDP; 96 h exposure): 350 nM; RF CH1/CDDP (CH1/CDDP; IC50 resistant/IC50 parent line, 96 h): 0.8; IC50 (CH1): 430 nM; IC50 (41M): < 250 nM
